The values that follow come from ChEMBL document CHEMBL5154908, “Design, Synthesis, and Biological Characterization of Inhaled p38α/β MAPK Inhibitors for the Treatment of Lung Inflammatory Diseases” (J Med Chem, 2022).

Series [1] concerns Rattus norvegicus. Nature of the series: Antiinflammatory activity against LPS-induced Sprague-Dawley rat inflammatory model assessed as inhibition of neutrophil cells release in BALF at 0.1 mg/kg, IT preincubated for 2 hrs followed by LPS-stimulation and measured after 4 hrs relative to control. The series is classed as functional. On the set-up: scale not given: the % may be the effect or the level left. The conditions noted are these: time 6 hrs.

In series [2] the test system is Rattus norvegicus. Nature of the series: Antiinflammatory activity against LPS-induced Sprague-Dawley rat inflammatory model assessed as inhibition of neutrophil cells release in BALF at 0.3 mg/kg, IT preincubated for 2 hrs followed by LPS-stimulation and measured after 4 hrs relative to control. The series is classed as functional. On the set-up: scale not given: the % may be the effect or the level left. The following applies: time 6 hrs.

Series [3] is described as follows: Metabolic stability in rat liver microsomes assessed as half life at 1 uM preincubated for 10 mins followed by NADPH addition and measured after 30 mins by LC/MS/MS analysis. The conditions noted are these: time 40 min. The series is classed as ADME, Microsome. On the technique in general: Liver microsomes are a subcellular fraction often used to study metabolism.

Series [4] addresses T1, Mitogen-activated protein kinase 14 (Homo sapiens, UniProt Q16539). Nature of the series: Inhibition of human recombinant full length GST-tagged p38alpha expressed in Escherichia coli preincubated for 2 hrs followed by ATP addition and measured after 1 hr by Alpha screen assay. (In general: Bead proximity is the source of the signal in Alpha formats.)
Series [5] can be described thus: Inhibition of LPS-stimulated TNFalpha release in human PBMC cells preincubated for 1 hr followed by LPS stimulation and measured after 18 hrs. The series is classed as functional, cell-based.
For series [6], the target named is T1, Mitogen-activated protein kinase 14. Nature of the series: Displacement of SKF-86002 from human inactivated p38alpha assessed as dissociation half life incubated for 2 hrs by fluorescence based analysis.
The target in series [7] is Mitogen-activated protein kinase 11 (Homo sapiens, UniProt Q15759). Nature of the series: Inhibition of recombinant human full length His-tagged p38beta expressed in baculovirus expression system preincubated for 2 hrs followed by ATP addition and measured after 1 hr by Alpha screen assay.
The target in series [8] is T2, Mitogen-activated protein kinase 12 (Homo sapiens, UniProt P53778).
T2 sequence (P53778 whole entry): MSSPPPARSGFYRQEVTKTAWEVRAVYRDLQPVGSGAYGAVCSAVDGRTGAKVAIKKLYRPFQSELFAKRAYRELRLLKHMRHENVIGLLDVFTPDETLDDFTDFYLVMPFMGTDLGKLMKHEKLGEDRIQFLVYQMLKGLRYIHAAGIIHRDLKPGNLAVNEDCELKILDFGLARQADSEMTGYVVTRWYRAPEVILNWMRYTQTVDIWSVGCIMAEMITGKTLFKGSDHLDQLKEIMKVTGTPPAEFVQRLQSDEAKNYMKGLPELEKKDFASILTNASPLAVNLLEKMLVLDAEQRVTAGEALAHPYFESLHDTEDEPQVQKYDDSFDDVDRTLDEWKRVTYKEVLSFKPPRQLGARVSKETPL
Nature of the series: Inhibition of recombinant human full length His-tagged p38gamma expressed in baculovirus expression system preincubated for 2 hrs followed by ATP addition and measured after 1 hr by Alpha screen assay.

The target of series [9] is T3, Mitogen-activated protein kinase 13 (Homo sapiens, UniProt O15264).
T3 sequence (O15264 whole entry): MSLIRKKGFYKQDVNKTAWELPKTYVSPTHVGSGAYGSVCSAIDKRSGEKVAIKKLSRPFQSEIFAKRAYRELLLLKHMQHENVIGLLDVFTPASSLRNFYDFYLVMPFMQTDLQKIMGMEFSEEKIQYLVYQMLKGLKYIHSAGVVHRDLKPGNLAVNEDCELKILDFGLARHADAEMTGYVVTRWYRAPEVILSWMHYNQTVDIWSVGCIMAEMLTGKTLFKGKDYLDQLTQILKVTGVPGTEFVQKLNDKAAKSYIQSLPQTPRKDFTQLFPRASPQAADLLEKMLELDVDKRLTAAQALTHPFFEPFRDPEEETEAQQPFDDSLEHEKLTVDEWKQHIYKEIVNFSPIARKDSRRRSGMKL
Nature of the series: Inhibition of recombinant human full length His-tagged p38delta expressed in baculovirus expression system preincubated for 2 hrs followed by ATP addition and measured after 1 hr by Alpha screen assay.

Series [10] can be described thus: Solubility of the compound at >=1 mg/ml measured after 30 mins by HPLC analysis. The series is classed as physicochemical.
Series [11] is described as follows: Permeability across apical to basolateral side in human Caco-2 cells at 10 uM measured after 60 mins by LC/MS/MS analysis. The conditions noted are these: read-out: permeability. The series is classed as ADME, cell-based. On the technique in general: Caco-2 monolayers are a common model of the intestinal barrier.
Series [12] is described as follows: Protein binding in human plasma at 10 uM incubated for 4 hrs by LC/MS/MS analysis. The series is classed as ADME, cell-free. The conditions noted are these: read-out: PPB.
The nature of series [13]: Protein binding in rat plasma at 10 uM incubated for 4 hrs by LC/MS/MS analysis. The series is classed as ADME, cell-free. The following applies: read-out: PPB (converted).
Series [14] is described as follows: Protein binding in rat lung homogenate at 10 uM incubated for 4 hrs by LC/MS/MS analysis. The following applies: read-out: PB (converted). The series is classed as ADME, tissue-based.
For series [15], the system named is Rattus norvegicus. Nature of the series: Antiinflammatory activity against LPS-induced Sprague-Dawley rat inflammatory model assessed as inhibition of neutrophil cells release in BALF at 1 mg/kg, IT measured after 1 hr relative to control. The series is classed as functional.
Series [16] relates to Rattus norvegicus. Nature of the series: Antiinflammatory activity against LPS-induced Sprague-Dawley rat inflammatory model assessed as inhibition of neutrophil cells release in BALF at 1 mg/kg, IT measured after 24 hrs relative to control. The series is classed as functional.
Series [17] in a line: Cmax in Sprague-Dawley rat plasma at 0.03 mg/kg, IT measured after 0.8 hrs by LC/MS/MS analysis. On the set-up: dose 0.03 mg/kg, time 0.8 hrs, route it. The series is classed as ADME, organism-based.
A short description of series [18]: Cmax in Sprague-Dawley rat lung homogenate at 0.03 mg/kg, IT measured after 0.8 hrs by LC/MS/MS analysis. The series is classed as ADME, organism-based. On the set-up: time 0.8 hrs, dose 0.03 mg/kg, route it.
The nature of series [19]: Drug concentration in Sprague-Dawley rat lung homogenate at 1 mg/kg, IT measured after 24 hrs by LC/MS/MS analysis. The series is classed as ADME, organism-based. The conditions noted are these: read-out: Ct.
The nature of series [20]: Selectivity index, ratio of drug concentration in Sprague-Dawley rat lung homogenate to IC50 for human p38alpha. The series is classed as tissue-based. The conditions noted are these: tissue homogenate.
A short description of series [21]: Drug uptake in Sprague-Dawley rat lung homogenate at 0.03 mg/kg, IT measured after 7 hrs by LC/MS/MS analysis. The series is classed as ADME, organism-based. The conditions noted are these: in vivo, other.
Series [22] in a line: Terminal half life in Sprague-Dawley rat lung homogenate at 0.03 mg/kg, IT measured after 24 hrs by LC/MS/MS analysis. The following applies: read-out: beta t1/2. The series is classed as ADME, organism-based.
A short description of series [23]: Drug uptake in Sprague-Dawley rat lung homogenate at 0.03 mg/kg, IT measured after 24 hrs by LC/MS/MS analysis. The series is classed as ADME, organism-based. The conditions noted are these: in vivo, other.
Series [24] is described as follows: Efflux ratio of permeability in human Caco-2 cells at 10 uM measured after 60 mins by LC-MS/MS analysis. The series is classed as ADME, cell-based.
Series [25] is described as follows: Drug concentration in Sprague-Dawley rat lung homogenate at 0.3 mg/kg, IT measured after 24 hrs by LC/MS/MS analysis. The series is classed as ADME, organism-based. The conditions noted are these: read-out: Ct.
A short description of series [26]: Cmax in Sprague-Dawley rat lung homogenate at 0.3 mg/kg, IT measured after 0.8 hrs by LC/MS/MS analysis. The series is classed as ADME, organism-based. On the set-up: time 0.8 hrs, dose 0.3 mg/kg, route it.
Series [27] can be described thus: Cmax in Sprague-Dawley rat plasma at 0.3 mg/kg, IT measured after 0.8 hrs by LC/MS/MS analysis. The series is classed as ADME, organism-based. On the set-up: time 0.8 hrs, dose 0.3 mg/kg, route it.
Series [28] relates to Rattus norvegicus. Nature of the series: Antiinflammatory activity against LPS-induced Sprague-Dawley rat inflammatory model assessed as inhibition of neutrophil cells release in BALF at 0.3 mg/kg, IT incubated for 9 hrs followed by LPS-stimulation relative to control. The series is classed as functional.

pIC50: −log10 of the molar value. Converted amounts (≈) assume the structure as drawn.

T1 sequence (Q16539 whole entry): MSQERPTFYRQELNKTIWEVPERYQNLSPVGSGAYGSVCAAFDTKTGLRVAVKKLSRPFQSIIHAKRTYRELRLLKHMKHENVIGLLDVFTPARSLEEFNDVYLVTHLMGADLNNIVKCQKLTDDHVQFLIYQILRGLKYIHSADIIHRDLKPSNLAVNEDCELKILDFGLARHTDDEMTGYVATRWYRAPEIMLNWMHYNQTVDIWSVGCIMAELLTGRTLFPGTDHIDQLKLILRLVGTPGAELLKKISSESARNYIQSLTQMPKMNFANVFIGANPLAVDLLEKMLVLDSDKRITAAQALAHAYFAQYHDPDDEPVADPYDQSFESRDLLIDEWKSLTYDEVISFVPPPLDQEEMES
Chain of Mitogen-activated protein kinase 11 (Q15759 whole entry): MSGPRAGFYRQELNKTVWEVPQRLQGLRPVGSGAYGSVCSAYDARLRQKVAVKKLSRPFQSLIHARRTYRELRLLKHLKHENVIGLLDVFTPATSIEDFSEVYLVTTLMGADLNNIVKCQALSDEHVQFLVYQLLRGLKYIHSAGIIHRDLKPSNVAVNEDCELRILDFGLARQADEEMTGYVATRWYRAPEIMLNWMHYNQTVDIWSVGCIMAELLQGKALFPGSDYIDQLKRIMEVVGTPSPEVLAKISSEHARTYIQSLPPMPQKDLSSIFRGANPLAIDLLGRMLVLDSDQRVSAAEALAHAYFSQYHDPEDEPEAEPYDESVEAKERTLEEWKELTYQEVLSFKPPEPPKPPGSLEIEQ

As to `C[C@H]1CCCCN1c1nnc2ccc(O[C@@H]3CC[C@H](NC(=O)Nc4cc(C(C)(C)C)nn4-c4cnn(CCN(C)C)c4)c4ccccc43)cn12.Cl`, the Activity with Rattus norvegicus [1] stood at 55%; in the series with Rattus norvegicus [2], 49%.

By pIC50 is commonly meant −log10 of the IC50, conventionally taken in molar units. For orientation: solubility means how much of the substance goes into solution per volume. Broadly, the inhibition in vivo is the change of the read-out against control, counted positive when it falls. Usually Cmax stands for the highest concentration seen after dosing. Consider `Cc1ccc(-n2nc(C(C)(C)C)cc2NC(=O)N[C@H]2CC[C@@H](Oc3ccc4nnc(C(C)C)n4c3)c3ccccc32)cc1`, for which the half-life at 1 µM in series [3] is under 0.167 h. The negative logarithm of the IC50 (pIC50) in series [4] was 9.70; in [5] it was 10.00; in series [7], 9.70; in [8], 6.79; in [9] it was under 5.30. Further, in series [6], the T1/2 is over 16 h. In addition, the solubility at 0.5 h in [10] turned out to be 10 µg/mL (≈ 17.3 µM). In [11], the Papp A→B at 1 h, 10 µM was 2.8 ×10⁻⁶ cm/s. For the same compound, the values for the fraction unbound at 4 h, 10 µM in series [12], in series [13] and in [14] were 0.001, under 0.001 and 0.004, respectively. Moreover, the inhibition in vivo at 1 mg/kg with Rattus norvegicus [15] was 50%; with Rattus norvegicus [16], -3%. Further, the Cmax in series [17] was determined as 90 nM; in series [18], 1080 nM. For the same compound, in series [19], the concentration at 24 h is 29800 nM. For the same compound, the Ratio in series [20] came to 149. Moreover, the values for the Drug uptake in series [21] and in series [23] were 8.4% and 9.6%, respectively. In addition, the half-life in [22] is over 24 h.

By efflux ratio is commonly meant a quotient of directional permeabilities that is used to spot active efflux. Regarding `C[C@@H]1CCC[C@H](C)N1c1nnc2ccc(O[C@@H]3CC[C@H](NC(=O)Nc4cc(C(C)(C)C)nn4-c4cnn(CCN(C)C)c4)c4ccccc43)cn12`, the negative-log IC50 (pIC50) is 10.30 in [4]; 9.30 in series [5]; 10.00 in series [7]; 6.09 in series [8]; under 5.00 in [9]. Further, the T1/2 in series [6] was over 16 h. In addition, the solubility at 0.5 h in [10] was found to be 620 µg/mL (≈ 893 µM). Moreover, the Papp A→B at 1 h, 10 µM in [11] amounted to 1.9 ×10⁻⁶ cm/s. The fraction unbound at 4 h, 10 µM in [13] is 0.004; in [14], 0.002. In series [20], the Ratio stood at 183. Moreover, the Drug uptake is 10% in series [21] and 5.4% in series [23]. Further, the efflux ratio at 1 h, 10 µM in series [24] was over 2.5. Moreover, the concentration at 24 h in series [25] was 4580 nM. Besides, the results for the Cmax in series [26] and in series [27] were 6360 nM and 30 nM, respectively. Further, the inhibition in vivo at 0.3 mg/kg in the series with Rattus norvegicus [28] was determined as 43%.
